Results on seven molecules are retold here after article PMC6063800 (Peptides, 2018).

Where a name gives a salt, the structure may show the parent alone. No end group written: not given here. Some results are limits rather than exact numbers.

Data set [1] relates to Staphylococcus aureus USA300. Put plainly: microbe, parasite or virus in culture. Format: cell-based. The note with it: for MIC, SA: USA300, 20 h.
Data set [2] deals with Bacillus subtilis 168. Put plainly: microbe, parasite or virus in culture. Conditions: for MIC, BS: 168, 20 h. Format: cell-based.
The test system of data set [3] is Escherichia coli ATCC 25922. Put plainly: microbe, parasite or virus in culture. Conditions: for MIC, EC: ATCC 25922, 20 h. It counts as cell-based.
Data set [4] has as its system Klebsiella pneumoniae ATCC 13883. Put plainly: microbe, parasite or virus in culture. Format: cell-based. The note with it: for MIC, KP: ATCC 13883, 20 h.
Data set [5] has as its system Pseudomonas aeruginosa PAO1. Put plainly: microbe, parasite or virus in culture. Format: cell-based. The note with it: PAO1, 20 h.
Data set [6] has as its system Human red blood cells (hRBC). In words: Hemolytic assay. It counts as cell-based. The note with it: red cells of human, 1 h.
Data set [7] concerns Candida albicans ATCC 10231. It counts as cell-based. The note with it: ATCC 10231, 48 h.
In data set [8] the test system is C. glabrata ATCC 2001. Format: cell-based, Candida glabrata. The note with it: ATCC 2001, 48 h.
The subject of data set [9] is C. tropicalis ATCC 13803. Format: cell-based, Candida tropicalis. The note with it: ATCC 13803, 48 h.
In data set [10] the test system is S. aureus USA300 biofilm. Put plainly: Disruption of 24-h preformed biofilms. It counts as cell-based, Staphylococcus aureus. The note with it: linezolid in the presence of 1.56 μM temporin-1OLa versus antibiotic alone, XTT. For orientation: Tetrazolium dyes change colour on reduction, which living cells bring about.
Data set [11] concerns S. aureus USA300. In words: Checkerboard synergy of peptide and antibiotics. Format: cell-based, Staphylococcus aureus. Conditions: in combination with temporin-1OLa.

For FLSAITSILGKFF [temporin-1SPa], the “MIC, SA” value in [1] turned out to be 6.3 µM. Besides, the “MIC, BS” value in data set [2] is 12.5 µM. Besides, in data set [3], the “MIC, EC” value was above 50 µM. Further, in data set [4], the “MIC, KP” value is above 50 µM. For the same molecule, the “MIC, PA” value in [5] was above 50 µM. Further, the “HL50 (peptide concentration that causes 50% hemolysis)” value in data set [6] was 37.5 µM. The “MIC, C. albicans” value in data set [7] came out at 25 µM. Also, in data set [8], the “MIC, C. glabrata” value amounted to 25 µM. For the same molecule, the “MIC, C. tropicalis” value in [9] amounted to 6.2 µM.

As to IPPFIKKVLTTVF [temporin-CPa], the “MIC, SA” value in data set [1] is at least 25 µM. Also, the “MIC, BS” value in [2] is 50 µM. Besides, the “MIC, EC” value in data set [3] came to 12.5 µM. Also, the “MIC, KP” value in data set [4] came out at 50 µM. Further, the “MIC, PA” value in data set [5] was above 50 µM. In addition, in [7], the “MIC, C. albicans” value stood at 25 µM. The “MIC, C. glabrata” value in data set [8] came out at 12.5 µM. Moreover, the “MIC, C. tropicalis” value in data set [9] is 3.1 to 6.2 µM.

Take FLPIVGRLISGIL [temporin-CPb]: the “MIC, SA” value in data set [1] stood at 12.5 µM. In data set [2], the “MIC, BS” value fell in the range of 25 to 50 µM. The “MIC, EC” value in data set [3] is above 50 µM. Besides, in [4], the “MIC, KP” value is above 50 µM. In addition, the “MIC, PA” value in data set [5] was above 50 µM. Further, the “MIC, C. albicans” value in [7] worked out at 50 µM. The “MIC, C. glabrata” value in [8] is above 50 µM. Further, the “MIC, C. tropicalis” value in data set [9] fell in the range of 6.2 to 12.5 µM.

As for `CC(=O)NC[C@H]1CN(c2ccc(N3CCOCC3)c(F)c2)C(=O)O1` [linezolid], the “disruption of 24 h established biofilms by combination” value in data set [10] is reported as “reduce biofilms more effectively”. Besides, the “combined effect with the peptide” value in data set [11] is on record as “additive effect”.

For FLPLLASLFSRLF [temporin-1Oc], the “MIC, BS” value in [2] stood at 12.5 µM. Further, in data set [3], the “MIC, EC” value was above 50 µM. Also, the “MIC, KP” value in data set [4] was above 50 µM. Moreover, the “MIC, PA” value in [5] is above 50 µM. Also, in data set [6], the “HL50 (peptide concentration that causes 50% hemolysis)” value is below 12.5 µM. In addition, the “MIC, C. albicans” value in data set [7] was 25 µM. In addition, the “MIC, C. glabrata” value in data set [8] stood at 25 µM. The “MIC, C. tropicalis” value in data set [9] was in the range of 1.6 to 3.1 µM.

In the case of SILPTIVSFLSKVF [temporin-1Ga], in [1], the “MIC, SA” value came out at 3.1 µM. Further, the “MIC, BS” value in data set [2] worked out at 6.3 µM. In addition, the “MIC, EC” value in data set [3] is above 50 µM. In addition, the “MIC, KP” value in [4] is above 50 µM. Besides, the “MIC, PA” value in [5] is above 50 µM. Moreover, in [6], the “HL50 (peptide concentration that causes 50% hemolysis)” value is 12.5 µM. Further, the “MIC, C. albicans” value in data set [7] turned out to be 12.5 µM. In addition, the “MIC, C. glabrata” value in data set [8] stood at 12.5 µM. For the same molecule, in data set [9], the “MIC, C. tropicalis” value amounted to 3.1 µM.

`CN[C@H](CC(C)C)C(=O)N[C@H]1C(=O)N[C@@H](CC(N)=O)C(=O)N[C@H]2C(=O)N[C@H]3C(=O)N[C@H](C(=O)N[C@H](C(=O)O)c4cc(O)cc(O)c4-c4cc3ccc4O)[C@H](O)c3ccc(c(Cl)c3)Oc3cc2cc(c3O[C@@H]2O[C@H](CO)[C@@H](O)[C@H](O)[C@H]2O[C@H]2C[C@](C)(N)[C@H](O)[C@H](C)O2)Oc2ccc(cc2Cl)[C@H]1O` [Vancomycin, vancomycin hydrochloride, reference compound]: the MIC in [1] (Staphylococcus aureus, MRSA|USA300, 20 h, read-out: MIC, SA) is 0.78 µM; in data set [2] (Bacillus subtilis, 168, 20 h, read-out: MIC, BS) it was above 3.1 µM; in data set [3] (Escherichia coli, ATCC25922, 20 h, read-out: MIC, EC) it was above 50 µM; in data set [4] (Klebsiella pneumoniae, ATCC13883, 20 h, read-out: MIC, KP), above 50 µM; in data set [5] (Pseudomonas aeruginosa, read-out: MIC, PA), above 50 µM.
